Data as given in patent publication US20260364214A1, “MULTIVALENT FIBROBLAST ACTIVATION PROTEIN LIGANDS FOR TARGETED DELIVERY APPLICATIONS” (Philochem AG, priority 2022, published 2026).

Columns and labels:
[1] = tested on: SK-RC-52.hFAP tumors; assay: Quantitative biodistribution in SK-RC-52.hFAP tumor bearing mice; type: in vivo, mouse (female athymic Balb/c AnNRj-Foxn1); conditions: i.v. 250 nmol/kg, 50 MBq/kg
Method in brief: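 Female athymic Balb/c nude mice carried subcutaneous SK-RC-52.hFAP tumors (5 million cells, ~300 mm^3). 177Lu-labeled conjugates were given i.v. at 250 nmol/kg, 50 MBq/kg. Tissues gamma-counted at several time points as %ID/g±SD, tumor values corrected for growth rate; tumor-to-organ ratios derived.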

[2] = Tolerability (body weight change) of 177Lu conjugates; type: in vivo, mouse (athymic Balb/c AnNRj-Foxn1); conditions: single administration, 250 nmol/kg, 250 MBq/kg
Procedure: The anti-cancer efficacy of ^177Lu-ESV6, ^177Lu-Bi-ESV6 and ^177Lu-Tri-ESV6 was assessed in athymic Balb/c AnNRj-Foxn1 mice bearing SK-RC-52.hFAP tumor in the right flank. ^177Lu-ESV6, ^177Lu-Bi-ESV6 or ^177Lu-Tri-ESV6 were intravenously administered at a dose of 250 nmol/kg, 250 MBq/kg (single administration on day 9 after tumor implantation). Therapy experiments started when the average volume of established tumors had reached 100-150 mm^3. Body weight of the animals and tumor volume were daily measured and recorded. Tumor dimensions were measured with an electronic caliper and tumor volume was calculated with the formula (long side, mm)×(short side, mm)×(short side, mm)×0.5. Animals were euthanized when one or more termination criterium indicated by the experimental license was reached. Prism 7 software (GraphPad Software) was used for data analysis.

[3] = 6 h post injection, listed as 177Lu-TriESV6-DOTAGA, 360 min

Structure (SMILES): N#CC1CC(F)(F)CN1C(=O)CNC(=O)c1ccnc2c(NC(=O)CCC(=O)NCCNC(=O)CCOCC(COCCC(=O)NCCNC(=O)CCC(=O)Nc3cccc4c(C(=O)NCC(=O)N5CC(F)(F)CC5C#N)ccnc34)(COCCC(=O)NCCNC(=O)CCC(=O)Nc3cccc4c(C(=O)NCC(=O)N5CC(F)(F)CC5C#N)ccnc34)NC(=O)CCC(C(=O)O)N3CCN(CC(=O)[O-])CCN(CC(=O)[O-])CCN(CC(=O)[O-])CC3)cccc12.[177Lu+3] (stereo not shown) [^177Lu-Tri-ESV6-DOTAGA]
- Tumor to organs ratio, Blood ([1]; 6 h): 260.4
- Injected dose per gram, Blood ([1]; 6 h post injection): 0.25 % ID/g
- Tumor to organs ratio, Blood ([1]; 24 h): 284.8
- Injected dose per gram, Blood ([1]; 24 h post injection): 0.07 % ID/g
- Tumor to organs ratio, Blood ([1]; 48 h): 1925.8
- Injected dose per gram, Blood ([1]; 48 h post injection): 0.01 % ID/g
- Tumor to organs ratio, Blood ([1]; 72 h): 7913.2
- Injected dose per gram, Blood ([1]; 72 h post injection): 0.01 % ID/g
- Tumor to organs ratio, Blood ([1]; 96 h): 3504
- Injected dose per gram, Blood ([1]; 96 h post injection): 0.00 % ID/g
- Tumor to organs ratio, Heart ([1]; 6 h): 215.4
- Injected dose per gram, Heart ([1]; 6 h post injection): 0.23 % ID/g
- Tumor to organs ratio, Heart ([1]; 24 h): 269.1
- Injected dose per gram, Heart ([1]; 24 h post injection): 0.08 % ID/g
- Tumor to organs ratio, Heart ([1]; 48 h): 559.6
- Injected dose per gram, Heart ([1]; 48 h post injection): 0.03 % ID/g
- Tumor to organs ratio, Heart ([1]; 72 h): 344.2
- Injected dose per gram, Heart ([1]; 72 h post injection): 0.07 % ID/g
- Tumor to organs ratio, Heart ([1]; 96 h): 492
- Injected dose per gram, Heart ([1]; 96 h post injection): 0.03 % ID/g
- Tumor to organs ratio, Intestine ([1]; 6 h): 188.9
- Injected dose per gram, Intestine ([1]; 6 h post injection): 0.26 % ID/g
- Tumor to organs ratio, Intestine ([1]; 24 h): 243.1
- Injected dose per gram, Intestine ([1]; 24 h post injection): 0.10 % ID/g
- Tumor to organs ratio, Intestine ([1]; 48 h): 282.6
- Injected dose per gram, Intestine ([1]; 48 h post injection): 0.06 % ID/g
- Tumor to organs ratio, Intestine ([1]; 72 h): 498.0
- Injected dose per gram, Intestine ([1]; 72 h post injection): 0.07 % ID/g
- Tumor to organs ratio, Intestine ([1]; 96 h): 763
- Injected dose per gram, Intestine ([1]; 96 h post injection): 0.02 % ID/g
- Tumor to organs ratio, Kidney ([1]; 6 h): 22.9
- Injected dose per gram, Kidney ([1]; 6 h post injection): 2.14 % ID/g
- Tumor to organs ratio, Kidney ([1]; 24 h): 17.2
- Injected dose per gram, Kidney ([1]; 24 h post injection): 1.16 % ID/g
- Tumor to organs ratio, Kidney ([1]; 48 h): 21.4
- Injected dose per gram, Kidney ([1]; 48 h post injection): 0.78 % ID/g
- Tumor to organs ratio, Kidney ([1]; 72 h): 24.8
- Injected dose per gram, Kidney ([1]; 72 h post injection): 0.83 % ID/g
- Tumor to organs ratio, Kidney ([1]; 96 h): 22
- Injected dose per gram, Kidney ([1]; 96 h post injection): 0.73 % ID/g
- Tumor to organs ratio, Liver ([1]; 6 h): 76.3
- Injected dose per gram, Liver ([1]; 6 h post injection, 360 min): 0.65 % ID/g
- Injected dose per gram, Liver [1, 3]: ~ 0.7 % ID/g
- Tumor to organs ratio, Liver ([1]; 24 h): 43.9
- Injected dose per gram, Liver ([1]; 24 h post injection): 0.46 % ID/g
- Tumor to organs ratio, Liver ([1]; 48 h): 56.2
- Injected dose per gram, Liver ([1]; 48 h post injection): 0.31 % ID/g
- Tumor to organs ratio, Liver ([1]; 72 h): 1294.6
- Injected dose per gram, Liver ([1]; 72 h post injection): 0.34 % ID/g
- Tumor to organs ratio, Liver ([1]; 96 h): 41
- Injected dose per gram, Liver ([1]; 96 h post injection): 0.40 % ID/g
- Tumor to organs ratio, Lung ([1]; 6 h): 128.8
- Injected dose per gram, Lung ([1]; 6 h post injection): 0.38 % ID/g
- Tumor to organs ratio, Lung ([1]; 24 h): 196.9
- Injected dose per gram, Lung ([1]; 24 h post injection): 0.10 % ID/g
- Tumor to organs ratio, Lung ([1]; 48 h): 299.5
- Injected dose per gram, Lung ([1]; 48 h post injection): 0.06 % ID/g
- Tumor to organs ratio, Lung ([1]; 72 h): 477.1
- Injected dose per gram, Lung ([1]; 72 h post injection): 0.11 % ID/g
- Tumor to organs ratio, Lung ([1]; 96 h): 344
- Injected dose per gram, Lung ([1]; 96 h post injection): 0.06 % ID/g
- Tumor to organs ratio, Muscle ([1]; 6 h): 187.0
- Injected dose per gram, Muscle ([1]; 6 h post injection): 0.45 % ID/g
- Tumor to organs ratio, Muscle ([1]; 24 h): 159.9
- Injected dose per gram, Muscle ([1]; 24 h post injection): 0.18 % ID/g
- Tumor to organs ratio, Muscle ([1]; 48 h): 1095.4
- Injected dose per gram, Muscle ([1]; 48 h post injection): 0.04 % ID/g
- Tumor to organs ratio, Muscle ([1]; 72 h): 536.6
- Injected dose per gram, Muscle ([1]; 72 h post injection): 0.04 % ID/g
- Tumor to organs ratio, Muscle ([1]; 96 h): 514
- Injected dose per gram, Muscle ([1]; 96 h post injection): 0.03 % ID/g
- Tumor to organs ratio, Spleen ([1]; 6 h): 196.0
- Injected dose per gram, Spleen ([1]; 6 h post injection, 360 min): 0.30 % ID/g
- Injected dose per gram, Spleen [1, 3]: ~ 0.3 % ID/g
- Tumor to organs ratio, Spleen ([1]; 24 h): 384.4
- Injected dose per gram, Spleen ([1]; 24 h post injection): 0.16 % ID/g
- Tumor to organs ratio, Spleen ([1]; 48 h): 244.8
- Injected dose per gram, Spleen ([1]; 48 h post injection): 0.10 % ID/g
- Tumor to organs ratio, Spleen ([1]; 72 h): 92.1
- Injected dose per gram, Spleen ([1]; 72 h post injection): 0.24 % ID/g
- Tumor to organs ratio, Spleen ([1]; 96 h): 69
- Injected dose per gram, Spleen ([1]; 96 h post injection): 0.24 % ID/g
- Tumor to organs ratio, Tail ([1]; 6 h): 48.4
- Injected dose per gram, Tail ([1]; 6 h post injection): 1.06 % ID/g
- Tumor to organs ratio, Tail ([1]; 24 h): 65.3
- Injected dose per gram, Tail ([1]; 24 h post injection): 0.31 % ID/g
- Tumor to organs ratio, Tail ([1]; 48 h): 136.9
- Injected dose per gram, Tail ([1]; 48 h post injection): 0.14 % ID/g
- Tumor to organs ratio, Tail ([1]; 72 h): 108.9
- Injected dose per gram, Tail ([1]; 72 h post injection): 0.19 % ID/g
- Tumor to organs ratio, Tail ([1]; 96 h): 98
- Injected dose per gram, Tail ([1]; 96 h post injection): 0.17 % ID/g
- Injected dose per gram, Tumor ([1]; 6 h post injection, 360 min): 48.96 % ID/g
- Injected dose per gram, Tumor [1, 3]: ~ 49 % ID/g
- Injected dose per gram, Tumor ([1]; 24 h post injection): 19.78 % ID/g
- Injected dose per gram, Tumor ([1]; 48 h post injection): 16.64 % ID/g
- Injected dose per gram, Tumor ([1]; 72 h post injection): 20.19 % ID/g
- Injected dose per gram, Tumor ([1]; 96 h post injection): 16.26 % ID/g
- tumor uptake / biodistribution profile, in words [1]: best biodistribution profile
- tolerability (body weight change), in words [2]: very well tolerated
